Measurements: US9777000B2, “Pyrazole derivative” (MOCHIDA PHARMACEUTICAL CO., LTD., priority 2013, dated 2017)
pIC50: −log10 of the molar value.

Target: human PDE10 (Homo sapiens (Human), UniProt Q9Y233)
Assay: Evaluation of enzyme inhibitory activity: human PDE10 inhibitory effect (IMAP TR-FRET)
Assay type: biochemical
Conditions: cAMP substrate
Procedure: (Evaluation of Enzyme Inhibitory Activity: Human PDE10 Inhibitory Effect)
IMAP TR-FRET Phosphodiersterase Evaluation Assay Kit (Molecular Device) was used for the measurement. Ten μL of a diluted test compound having each concentration and 5 μL of the enzyme PDE10 (BPA Bioscience) that had been diluted to 2 ng/mL with 1×IMAP Reaction Buffer (prepared with 5×included with the kit, 10 mM Tris-HCl, pH=7.2, 10 mM MgCl2, 0.05% NaN3, and 0.1% BSA) containing 0.1% BSA were added to a 384-well plate (Corning). The obtained mixture was then pre-incubated at room temperature for 5 minutes. Thereafter, 5 μL of cAMP substrate solution which was included with the kit and diluted to 400 nM with 1×IMAP Reaction Buffer containing 0.1% BSA, was added to the reaction solution, and the obtained mixture was reacted at room temperature for 60 minutes. Thereafter, 60 μL of an IMAP TR-FRET Binding solution included with the kit was further added to the reaction solution, and the obtained mixture was then left for 3 hours or more. Subsequently, using ARVO SX (PerkinElmer), the fluorescent intensity of Terbium (Emission=490 nm) and TR-FRET (Emission=520 nm) in the reaction solution were measured at an excitation wavelength of 340 nm, so as to calculate the amount of the generated 5′-AMP. The count of a well to which a solvent had been added instead of the test compound was set at 0%, and the count of a well to which the enzyme PDE10 had not been added was set at 100%. Thus, the inhibitory activity of each test compound was calculated.
The PDE10 inhibitory activity of the test compound was indicated with an IC50 value. […] The test compounds are shown in Table 3 (Table 3-1 and Table 3-2).

human PDE10, sequence (Q9Y233 whole entry): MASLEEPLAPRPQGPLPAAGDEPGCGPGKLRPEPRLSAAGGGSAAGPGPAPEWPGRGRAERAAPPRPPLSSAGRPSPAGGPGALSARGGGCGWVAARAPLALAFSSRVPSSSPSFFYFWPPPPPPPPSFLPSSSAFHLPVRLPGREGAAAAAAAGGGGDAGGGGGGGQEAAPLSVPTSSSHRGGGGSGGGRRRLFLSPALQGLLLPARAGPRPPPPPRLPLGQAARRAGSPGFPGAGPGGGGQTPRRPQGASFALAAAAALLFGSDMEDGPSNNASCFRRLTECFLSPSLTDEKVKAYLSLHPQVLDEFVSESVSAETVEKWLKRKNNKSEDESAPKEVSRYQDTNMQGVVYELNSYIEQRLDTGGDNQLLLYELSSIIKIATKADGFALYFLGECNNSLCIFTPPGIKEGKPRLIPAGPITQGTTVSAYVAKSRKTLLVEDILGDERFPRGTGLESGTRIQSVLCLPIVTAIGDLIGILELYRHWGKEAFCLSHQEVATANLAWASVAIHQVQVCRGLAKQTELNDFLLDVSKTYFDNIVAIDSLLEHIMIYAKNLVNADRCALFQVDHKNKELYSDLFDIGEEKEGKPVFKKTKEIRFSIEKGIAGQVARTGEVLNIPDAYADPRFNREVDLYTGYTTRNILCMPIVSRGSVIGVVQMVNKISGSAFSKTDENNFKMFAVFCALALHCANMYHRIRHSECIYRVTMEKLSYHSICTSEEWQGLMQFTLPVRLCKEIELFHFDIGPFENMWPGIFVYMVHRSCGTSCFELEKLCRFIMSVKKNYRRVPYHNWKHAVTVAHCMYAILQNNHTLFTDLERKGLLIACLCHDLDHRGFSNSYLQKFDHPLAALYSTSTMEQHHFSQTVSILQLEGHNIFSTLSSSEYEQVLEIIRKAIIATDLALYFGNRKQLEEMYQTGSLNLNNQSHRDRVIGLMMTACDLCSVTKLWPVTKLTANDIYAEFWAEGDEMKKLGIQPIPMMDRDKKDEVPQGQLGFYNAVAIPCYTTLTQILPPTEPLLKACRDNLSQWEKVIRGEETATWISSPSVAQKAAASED

| Compound | pIC50 |
| --- | --- |
| Cn1ncc(-c2nc(C(F)F)cs2)c1C(=O)NC1CCn2cc(-c3ccc(F)cc3)nc2C1 (stereo not shown) [Example 2.28, 4-(4-(difluoromethyl)thiazol-2-yl)-N-(2-(4-fluorophenyl)-5,6,7,8-tetrahydroimidazo[1,2-a]pyridin-7-yl)-1-methyl-1H-pyrazole-5-carboxamide] | > 8.30 |
| Cc1ncc(C)c(-c2cnn(C)c2C(=O)Nc2cc3nc(-c4cccnc4)nn3cc2F)n1 [Example 3.49, 4-(2,5-dimethylpyrimidin-4-yl)-N-(6-fluoro-2-(pyridin-3-yl)-[1,2,4]triazolo[1,5-a]pyridin-7-yl)-1-methyl-1H-pyrazole-5-carboxamide] | > 8.30 |
| Cn1ncc(-c2nc(C(F)(F)F)cs2)c1C(=O)Nc1cc2nc(-c3ccccc3)nn2cc1F [Example 3.6, N-(6-fluoro-2-phenyl-[1,2,4]triazolo[1,5-a]pyridin-7-yl)-1-methyl-4-(4-(trifluoromethyl)thiazol-2-yl)-1H-pyrazole-5-carboxamide] | > 8.30 |
| Cn1ncc(-c2nc(C(F)F)cs2)c1C(=O)Nc1cc2nc(-c3ccccc3)nn2cc1F [Example 3.12, 4-(4-(difluoromethyl)thiazol-2-yl)-N-(6-fluoro-2-phenyl-[1,2,4]triazolo[1,5-a]pyridin-7-yl)-1-methyl-1H-pyrazole-5-carboxamide] | > 8.30 |
| Cc1nc(C)c(C)c(-c2cnn(C)c2C(=O)Nc2cc3nc(-c4ccccc4)nn3cc2F)n1 [Example 3.37, N-(6-fluoro-2-phenyl-[1,2,4]triazolo[1,5-a]pyridin-7-yl)-1-methyl-4-(2,5,6-trimethylpyrimidin-4-yl)-1H-pyrazole-5-carboxamide] | > 8.30 |
| COc1ccnc(-c2cnn(C)c2C(=O)Nc2ccn3nc(N4CCC[C@@H]4C)nc3c2)c1 [Example 4.5, (S)-4-(4-methoxypyridin-2-yl)-1-methyl-N-(2-(2-methylpyrrolidin-1-yl)-[1,2,4]triazolo[1,5-a]pyridin-7-yl)-1H-pyrazole-5-carboxamide] | > 8.30 |
| Cc1sc(-c2cnn(C)c2C(=O)Nc2ccn3nc(N4CCC[C@@H]4C)nc3c2)nc1C(F)F [Example 4.9, (S)-4-(4-(difluoromethyl)-5-methylthiazol-2-yl)-1-methyl-N-(2-(2-methylpyrrolidin-1-yl)-[1,2,4]triazolo[1,5-a]pyridin-7-yl)-1H-pyrazole-5-carboxamide] | > 8.30 |
| Cc1cccc(-c2cnn(C)c2C(=O)Nc2ccn3nc(N4CC[C@H](F)C4)nc3c2)n1 [Example 4.21, (S)-N-(2-(3-fluoropyrrolidin-1-yl)-[1,2,4]triazolo[1,5-a]pyridin-7-yl)-1-methyl-4-(6-methylpyridin-2-yl)-1H-pyrazole-5-carboxamide] | > 8.30 |
| Cn1ncc(-c2cccc(C(F)(F)F)n2)c1C(=O)Nc1ccn2cc(-c3ccccc3)nc2c1 [Example 1.6, 1-methyl-N-(2-phenylimidazo[1,2-a]pyridin-7-yl)-4-(6-(trifluoromethyl)pyridin-2-yl)-1H-pyrazole-5-carboxamide] | > 8.30 |
| Cc1ncnc(-c2cnn(C)c2C(=O)Nc2cc3nc(-c4ccccc4)nn3cc2F)c1F [Example 3.38, N-(6-fluoro-2-phenyl-[1,2,4]triazolo[1,5-a]pyridin-7-yl)-4-(5-fluoro-6-methylpyrimidin-4-yl)-1-methyl-1H-pyrazole-5-carboxamide] | > 8.30 |
| Cn1ncc(-c2nc(C(F)F)c(Cl)s2)c1C(=O)Nc1ccn2cc(-c3ccccc3)nc2c1 [Example 1.7, 4-(5-chloro-4-(difluoromethyl)thiazol-2-yl)-1-methyl-N-(2-phenylimidazo[1,2-a]pyridin-7-yl)-1H-pyrazole-5-carboxamide] | > 8.30 |
| Cc1ncc(C)c(-c2cnn(C)c2C(=O)Nc2cc3nc(N4CCCC4)nn3cc2F)n1 [Example 4.35, 4-(2,5-dimethylpyrimidin-4-yl)-N-(6-fluoro-2-(pyrrolidin-1-yl)-[1,2,4]triazolo[1,5-a]pyridin-7-yl)-1-methyl-1H-pyrazole-5-carboxamide] | > 8.30 |
| Cc1ccnc(-c2cnn(C)c2C(=O)Nc2cc3nc(-c4ccccc4)nn3cc2F)n1 [Example 3.43, N-(6-fluoro-2-phenyl-[1,2,4]triazolo[1,5-a]pyridin-7-yl)-1-methyl-4-(4-methylpyrimidin-2-yl)-1H-pyrazole-5-carboxamide] | > 8.30 |
| COc1cncnc1-c1cnn(C)c1C(=O)Nc1cc2nc(-c3ccccc3)nn2cc1F [Example 3.34, N-(6-fluoro-2-phenyl-[1,2,4]triazolo[1,5-a]pyridin-7-yl)-4-(5-methoxypyrimidin-4-yl)-1-methyl-1H-pyrazole-5-carboxamide] | > 8.30 |
| COc1ccnc(-c2cnn(C)c2C(=O)Nc2cc3nc(-c4ccccc4)nn3cc2F)c1 [Example 3.52, N-(6-fluoro-2-phenyl-[1,2,4]triazolo[1,5-a]pyridin-7-yl)-4-(4-methoxypyridin-2-yl)-1-methyl-1H-pyrazole-5-carboxamide] | > 8.30 |
| COc1ncnc(-c2cnn(C)c2C(=O)Nc2cc3nc(-c4ccccc4)nn3cc2F)c1C [Example 3.31, N-(6-fluoro-2-phenyl-[1,2,4]triazolo[1,5-a]pyridin-7-yl)-4-(6-methoxy-5-methylpyrimidin-4-yl)-1-methyl-1H-pyrazole-5-carboxamide] | > 8.30 |
| COc1ccccc1-c1nc2cc(NC(=O)c3c(-c4nc(C(F)F)cs4)cnn3C)ccn2n1 [Example 3.16, 4-(4-(difluoromethyl)thiazol-2-yl)-N-(2-(2-methoxyphenyl)-[1,2,4]triazolo[1,5-a]pyridin-7-yl)-1-methyl-1H-pyrazole-5-carboxamide] | > 8.30 |
| (R)-N-(6-fluoro-2-(2trifluoromethyl)pyrrolidin-1-yl)-[1,2,4]triazolo[1,5-a]pyridin-7-yl)-1-methyl-4-(6-methylpyridin-2-yl)-1H-pyrazole-5-carboxamide [Example 4.11] | > 8.30 |
| Cc1sc(-c2cnn(C)c2C(=O)NC2CCn3cc(-c4ccccc4)nc3C2)nc1C(F)F (stereo not shown) [Example 2.6, 4-(4-(difluoromethyl)-5-methylthiazol-2-yl)-1-methyl-N-(2-phenyl-5,6,7,8-tetrahydroimidazo[1,2-a]pyridin-7-yl)-1H-pyrazole-5-carboxamide] | > 8.30 |
| Cc1cc(C)nc(-c2cnn(C)c2C(=O)Nc2ccn3nc(N4CCCC4)nc3c2)c1 [Example 4.32, 4-(4,6-dimethylpyridin-2-yl)-1-methyl-N-(2-(pyrrolidin-1-yl)-[1,2,4]triazolo[1,5-a]pyridin-7-yl)-1H-pyrazole-5-carboxamide] | > 8.30 |
| Cc1cc(C)nc(-c2cnn(C)c2C(=O)Nc2cc3nc(-c4ccccc4)nn3cc2F)n1 [Example 3.44, 4-(4,6-dimethylpyrimidin-2-yl)-N-(6-fluoro-2-phenyl-[1,2,4]triazolo[1,5-a]pyridin-7-yl)-1-methyl-1H-pyrazole-5-carboxamide] | > 8.30 |
| COc1ccnc(-c2cnn(C)c2C(=O)Nc2ccn3nc(N4CCCC4)nc3c2)c1 [Example 4.28, 4-(4-methoxypyridin-2-yl)-1-methyl-N-(2-(pyrrolidin-1-yl)-[1,2,4]triazolo[1,5-a]pyridin-7-yl)-1H-pyrazole-5-carboxamide] | > 8.30 |
| Cn1ncc(-c2nc(C(F)(F)F)cs2)c1C(=O)NC1CCn2c(nc(-c3ccccc3)c2F)C1 (stereo not shown) [Example 2.19, N-(3-fluoro-2-phenyl-5,6,7,8-tetrahydroimidazo[1,2-a]pyridin-7-yl)-1-methyl-4-(4-(trifluoromethyl)thiazol-2-yl)-1H-pyrazole-5-carboxamide] | > 8.30 |
| Cc1nc(-c2cnn(C)c2C(=O)NC2CCn3nc(-c4ccccc4)nc3C2)sc1Br (stereo not shown) [Example 5.7, 4-(5-bromo-4-methylthiazol-2-yl)-1-methyl-N-(2-phenyl-5,6,7,8-tetrahydro-[1,2,4]triazolo[1,5-a]pyridin-7-yl)-1H-pyrazole-5-carboxamide] | > 8.30 |
| Cc1nc(-c2cnn(C)c2C(=O)NC2CCn3nc(N4CCCC4)nc3C2)sc1C (stereo not shown) [Example 5.45, 4-(4,5-dimethylthiazol-2-yl)-1-methyl-N-(2-(pyrrolidin-1-yl)-5,6,7,8-tetrahydro-[1,2,4]triazolo[1,5-a]pyridin-7-yl)-1H-pyrazole-5-carboxamide] | > 8.30 |
| COc1cccc(-c2cnn(C)c2C(=O)NC2CCn3cc(-c4ccccc4)nc3C2)n1 (stereo not shown) [Example 2.11, 4-(6-methoxypyridin-2-yl)-1-methyl-N-(2-phenyl-5,6,7,8-tetrahydroimidazo[1,2-a]pyridin-7-yl)-1H-pyrazole-5-carboxamide] | > 8.30 |
| Cn1ncc(-c2nc(C(F)F)cs2)c1C(=O)Nc1ccn2cc(-c3ccccc3)nc2c1 [Example 1.3, 4-(4-(difluoromethyl)thiazol-2-yl)-1-methyl-N-(2-phenylimidazo[1,2-a]pyridin-7-yl)-1H-pyrazole-5-carboxamide] | > 8.30 |
| Cc1sc(-c2cnn(C)c2C(=O)Nc2ccn3nc(N4CC[C@H](F)C4)nc3c2)nc1C(F)F [Example 4.23, (S)-4-(4-(difluoromethyl)-5-methylthiazol-2-yl)-N-(2-(3-fluoropyrrolidin-1-yl)-[1,2,4]triazolo[1,5-a]pyridin-7-yl)-1-methyl-1H-pyrazole-5-carboxamide] | > 8.30 |
